US20190167619A1, “PHARMACEUTICAL FORMULATIONS AND THEIR USE” (SIGNUM BIOSCIENCES, INC., priority 2016, published 2019)

What was measured:
[1] = Stability of a formulation comprising the disodium salt after storage at 5° C., HPLC (Example 3); type: physicochemical
Method: The stability of a formulation comprising the disodium salt of 4-(((R)-1-carboxy-2-(((2E,6E)-3,7,11-trimethyldodeca-2,6,10-trien-1-yl)thio)ethyl)amino)-4-oxobutanoic acid was determined after storage at 5° C. for a period of 1 month, 2 months, 3 months, 6 months, 9 months, 12 months, 18 months, and 24 months. In each case, the percentage of 4-(((R)-1-carboxy-2-(((2E,6E)-3,7,11-trimethyldodeca-2,6,10-trien-1-yl)thio)ethyl)amino)-4-oxobutanoic acid remaining at each time point was determined by use of HPLC. Each of the percentages in the table below are expressed at the weight percentage of the component as compared to the total weight of the composition.

[2] = Stability of a formulation comprising the disodium salt after storage at 25° C., HPLC (Example 2); type: physicochemical
Method: The stability of a formulation comprising the disodium salt of 4-(((R)-1-carboxy-2-(((2E,6E)-3,7,11-trimethyldodeca-2,6,10-trien-1-yl)thio)ethyl)amino)-4-oxobutanoic acid was determined after storage at 25° C. for a period of 4 months, 6 months, 9 months and 12 months. […]

weight percentage of the component as compared to the total weight of the composition ([1]; 1 month, storage at 5° C.) [weight percentage]	weight percentage of the component as compared to the total weight of the composition ([1]; 2 months, storage at 5° C.) [weight percentage]	weight percentage of the component as compared to the total weight of the composition ([1]; 3 months, storage at 5° C.) [weight percentage]	weight percentage of the component as compared to the total weight of the composition ([1]; 6 months, storage at 5° C.) [weight percentage]	weight percentage of the component as compared to the total weight of the composition ([1]; 9 months, storage at 5° C.) [weight percentage]	weight percentage of the component as compared to the total weight of the composition ([1]; 12 months, storage at 5° C.) [weight percentage]	weight percentage of the component as compared to the total weight of the composition ([1]; 18 months, storage at 5° C.) [weight percentage]	weight percentage of the component as compared to the total weight of the composition ([1]; 24 months, storage at 5° C.) [weight percentage]	weight percentage of the component as compared to the total weight of the composition ([1]; Initial) [weight percentage]	% age of sulfoxide of 4-(((R)-1-carboxy-2-(((2E,6E)-3,7,11-trimethyldodeca-2,6,10-trien-1-yl)thio)ethyl)amino)-4-oxobutanoic acid ([2]; Initial) [%]	% age of sulfoxide of 4-(((R)-1-carboxy-2-(((2E,6E)-3,7,11-trimethyldodeca-2,6,10-trien-1-yl)thio)ethyl)amino)-4-oxobutanoic acid ([2]; after 1 month, storage at 25° C.) [%]	% age of sulfoxide of 4-(((R)-1-carboxy-2-(((2E,6E)-3,7,11-trimethyldodeca-2,6,10-trien-1-yl)thio)ethyl)amino)-4-oxobutanoic acid ([2]; after 3 months, storage at 25° C.) [%]	% age of sulfoxide of 4-(((R)-1-carboxy-2-(((2E,6E)-3,7,11-trimethyldodeca-2,6,10-trien-1-yl)thio)ethyl)amino)-4-oxobutanoic acid ([2]; after 6 months, storage at 25° C.) [%]	% age of sulfoxide of 4-(((R)-1-carboxy-2-(((2E,6E)-3,7,11-trimethyldodeca-2,6,10-trien-1-yl)thio)ethyl)amino)-4-oxobutanoic acid ([2]; after 9 months, storage at 25° C.) [%]	Compound
0.032	0.032	0.033	0.032	0.033	0.032	0.033	0.030	0.034						CCCOC(=O)c1ccc(O)cc1 [Propylparaben]
									0.037	0.031	0.113	0.053	0.134	CC(C)=CCC/C(C)=C/CC/C(C)=C/CSC[C@H](NC(=O)CCC(=O)O)C(=O)O [4-(((R)-1-carboxy-2-(((2E,6E)-3,7,11-trimethyldodeca-2,6,10-trien-1-yl)thio)ethyl)amino)-4-oxobutanoic acid]
0.17	0.17	0.17	0.18	0.17	0.17	0.17	0.15	0.17						COC(=O)c1ccc(O)cc1 [Methylparaben]
